According to patent publication US9040519B2, “Fused tetracyclic pyrido [4,3-B] indole and pyrido [3,4-B] indole derivatives and methods of use” (Medivation Technologies, Inc., priority 2010, dated 2015):

Key:
[1] = biological target: T1, human recombinant histamine H1 receptor (Homo sapiens, UniProt P35367); experiment: Histamine H1 radioligand binding ([3H]Pyrilamine); settings: compound at 1 μM, 1.2 nM [3H]Pyrilamine, CHO K1 cells; for inhibition at 1 µM: read-out: Histamine H1 Binding (1 μM), percentage inhibition
T1 construct: expressed in transfected cells; host or cells: CHO-K1
T1 sequence (P35367 whole entry): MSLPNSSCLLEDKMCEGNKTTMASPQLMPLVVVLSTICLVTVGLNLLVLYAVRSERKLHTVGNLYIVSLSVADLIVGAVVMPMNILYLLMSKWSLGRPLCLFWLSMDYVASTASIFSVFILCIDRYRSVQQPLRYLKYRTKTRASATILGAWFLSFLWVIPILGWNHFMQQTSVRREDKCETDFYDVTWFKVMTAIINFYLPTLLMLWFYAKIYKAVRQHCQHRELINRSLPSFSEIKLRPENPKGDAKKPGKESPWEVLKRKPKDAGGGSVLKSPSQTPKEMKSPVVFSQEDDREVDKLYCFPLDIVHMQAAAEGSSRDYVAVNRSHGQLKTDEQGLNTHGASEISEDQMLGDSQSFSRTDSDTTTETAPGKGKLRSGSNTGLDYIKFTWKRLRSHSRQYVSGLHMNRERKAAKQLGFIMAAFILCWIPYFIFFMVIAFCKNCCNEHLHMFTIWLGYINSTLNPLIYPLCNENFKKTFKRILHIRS
Description: To evaluate in radioligand binding assays the activity of compounds of the invention, human recombinant histamine H1 receptor expressed in Chinese hamster ovary (CHO) K1 cells (De Backer, M. et al, Biochem. Biophys. Res. Comm. 197(3):1601, 1993) in a modified Tris-HCl buffer (50 mM Tris-HCl, pH 7.4, 2 mM MgCl2, 100 mM NaCl, 250 mM Sucrose) was used. Compounds of the invention were incubated with 1.2 nM [^3H]Pyrilamine for 180 min at 25° C. Non-specific binding was estimated in the presence of 1 μM Pyrilamine. Receptor proteins were filtered and washed, the filters were then counted to determine [^3H]Pyrilamine specifically bound. Compounds were screened at 1 μM or lower, using 1% DMSO as vehicle. Biochemical assay results are presented as the percent inhibition of specific binding in Table 2.

[2] = biological target: T2, human recombinant dopamine D2L receptor (Homo sapiens, UniProt P14416); experiment: Dopamine D2L radioligand binding ([3H]Spiperone); settings: compound at 1 μM, CHO cells; for inhibition at 1 µM: read-out: Percentage inhibition of ligand binding, Dopamine D2L; for Percentage inhibition of ligand binding, Dopamine D2L: 1 µM
T2 construct: expressed in transfected cells; host or cells: CHO
T2 sequence (P14416 whole entry): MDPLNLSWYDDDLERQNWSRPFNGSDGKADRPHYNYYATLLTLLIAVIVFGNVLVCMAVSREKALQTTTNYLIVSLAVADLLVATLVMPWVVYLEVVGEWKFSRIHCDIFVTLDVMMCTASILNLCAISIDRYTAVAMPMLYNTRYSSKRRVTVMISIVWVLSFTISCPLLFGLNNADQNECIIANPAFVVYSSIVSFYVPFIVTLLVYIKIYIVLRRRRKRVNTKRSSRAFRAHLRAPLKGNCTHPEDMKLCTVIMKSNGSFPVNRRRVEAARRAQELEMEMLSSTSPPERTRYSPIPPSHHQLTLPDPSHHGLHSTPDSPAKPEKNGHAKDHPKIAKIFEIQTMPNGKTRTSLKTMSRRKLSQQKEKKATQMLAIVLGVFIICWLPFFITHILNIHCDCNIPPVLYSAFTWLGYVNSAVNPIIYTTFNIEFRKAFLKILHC
Description: To evaluate in radioligand binding assays the activity of compounds of the invention, human recombinant dopamine D2L receptor expressed in Chinese hamster ovary (CHO) cells (Grandy, D. et al, Proc. Natl. Acad. Sci. USA. 86:9762, 1989; Hayes, G. et al, Mol. Endocrinol. 6:920, 1992) in a modified Tris-HCl buffer (50 mM Tris-HCl, pH 7.4, 1.4 mM Ascorbic Acid, 0.001% BSA, 150 mM NaCl) was used. Compounds of the invention were incubated with 0.16 nM [^3H]Spiperone for 120 min at 25° C. Non-specific binding was estimated in the presence of 10 μM Haloperidol. Receptor proteins were filtered and washed, the filters were then counted to determine [^3H]Spiperone specifically bound. Compounds were screened at 1 μM or lower, using 1% DMSO as vehicle. Biochemical assay results are presented as the percent inhibition of specific binding in Table 3.

[3] = biological target: T3, human recombinant serotonin (5-Hydroxytryptamine) 5-HT2A receptor (Homo sapiens, UniProt P28223); experiment: Serotonin 5-HT2A radioligand binding ([3H]Ketanserin); settings: compound at 0.1 μM, CHO K1 cells; for inhibition at 0.1 µM: read-out: Percentage inhibition of ligand binding, Serotonin 5-HT2A
T3 construct: expressed in transfected cells; host or cells: CHO-K1
T3 sequence (P28223 whole entry): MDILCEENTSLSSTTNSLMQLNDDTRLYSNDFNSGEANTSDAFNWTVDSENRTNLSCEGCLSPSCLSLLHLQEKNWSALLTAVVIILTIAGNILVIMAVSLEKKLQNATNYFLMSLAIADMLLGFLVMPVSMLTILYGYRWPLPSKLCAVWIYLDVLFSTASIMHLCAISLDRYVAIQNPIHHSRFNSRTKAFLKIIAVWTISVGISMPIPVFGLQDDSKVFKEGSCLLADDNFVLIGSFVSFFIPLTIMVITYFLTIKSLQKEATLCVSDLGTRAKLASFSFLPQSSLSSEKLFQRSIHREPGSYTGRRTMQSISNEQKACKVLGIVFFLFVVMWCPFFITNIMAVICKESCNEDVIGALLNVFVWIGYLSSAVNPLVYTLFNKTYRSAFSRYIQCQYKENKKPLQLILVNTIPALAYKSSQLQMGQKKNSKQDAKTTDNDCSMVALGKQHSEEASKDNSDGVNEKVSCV
Description: To evaluate in radioligand binding assays the activity of compounds of the invention, human recombinant serotonin (5-Hydroxytryptamine) 5-HT2A receptor expressed in Chinese hamster ovary (CHO) K1 cells (Bonhaus, D. et al, Br. J. Pharmacol. 115:622, 1995; Saucier, C. et al, J. Neurochem. 68:1998, 1997) in a 50 mM Tris-HCl buffer, pH 7.4, was used. Compounds of the invention were incubated with 0.5 nM [^3H]Ketanserin for 60 min at 25° C. Non-specific binding was estimated in the presence of 1 μM Mianserin. Receptor proteins were filtered and washed, the filters were then counted to determine [^3H]Ketanserin specifically bound. Compounds were screened at 1 μM or lower, using 1% DMSO as vehicle. Biochemical assay results are presented as the percent inhibition of specific binding in Table 4.

[4] = biological target: T4, human recombinant serotonin (5-Hydroxytryptamine) 5-HT2C receptor (Homo sapiens, UniProt P28335); experiment: Serotonin 5-HT2C radioligand binding ([3H]Mesulergine); settings: compound at 0.1 μM, CHO K1 cells; for inhibition at 0.1 µM: read-out: Percentage inhibition of ligand binding, Serotonin 5-HT2C
T4 construct: expressed in transfected cells; host or cells: CHO-K1
T4 sequence (P28335 33-458): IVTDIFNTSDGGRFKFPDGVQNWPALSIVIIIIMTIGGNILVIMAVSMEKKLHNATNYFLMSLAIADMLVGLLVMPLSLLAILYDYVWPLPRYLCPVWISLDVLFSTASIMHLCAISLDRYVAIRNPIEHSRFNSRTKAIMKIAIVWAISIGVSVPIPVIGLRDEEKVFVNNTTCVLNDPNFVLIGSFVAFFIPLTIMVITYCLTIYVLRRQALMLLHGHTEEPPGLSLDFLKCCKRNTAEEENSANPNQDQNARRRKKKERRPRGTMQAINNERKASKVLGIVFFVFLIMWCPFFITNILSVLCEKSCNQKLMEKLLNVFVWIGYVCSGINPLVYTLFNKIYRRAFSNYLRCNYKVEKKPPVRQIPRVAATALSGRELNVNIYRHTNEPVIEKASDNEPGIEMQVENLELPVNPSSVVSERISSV
Description: To evaluate in radioligand binding assays the activity of compounds of the invention, human recombinant serotonin (5-Hydroxytryptamine) 5-HT2C receptor expressed in Chinese hamster ovary (CHO) K1 cells (Wolf, W. et al, J. Neurochem. 69:1449, 1997) in a modified Tris-HCl buffer (50 mM Tris-HCl, pH 7.4, 0.1% Ascorbic Acid, 10 μM Pargyline) was used. Compounds of the invention were incubated with 1 nM [^3H]Mesulergine for 60 min at 25° C. Non-specific binding was estimated in the presence of 1 μM Mianserin. Receptor proteins were filtered and washed, the filters were then counted to determine [^3H]Mesulergine specifically bound. Compounds were screened at 1 μM or lower, using 1% DMSO as vehicle. Biochemical assay results are presented as the percent inhibition of specific binding in Table 4.

[5] = biological target: T5, human recombinant serotonin (5-Hydroxytryptamine) 5-HT6 receptor (Homo sapiens, UniProt P50406); experiment: Serotonin 5-HT6 radioligand binding ([3H]LSD); settings: compound at 0.1 μM, HeLa cells; for inhibition at 0.1 µM: read-out: Percentage inhibition of ligand binding, Serotonin 5-HT6; for Percentage inhibition of ligand binding, Serotonin 5-HT6: 0.1 µM
T5 construct: expressed in transfected cells; host or cells: HeLa
T5 sequence (P50406 whole entry): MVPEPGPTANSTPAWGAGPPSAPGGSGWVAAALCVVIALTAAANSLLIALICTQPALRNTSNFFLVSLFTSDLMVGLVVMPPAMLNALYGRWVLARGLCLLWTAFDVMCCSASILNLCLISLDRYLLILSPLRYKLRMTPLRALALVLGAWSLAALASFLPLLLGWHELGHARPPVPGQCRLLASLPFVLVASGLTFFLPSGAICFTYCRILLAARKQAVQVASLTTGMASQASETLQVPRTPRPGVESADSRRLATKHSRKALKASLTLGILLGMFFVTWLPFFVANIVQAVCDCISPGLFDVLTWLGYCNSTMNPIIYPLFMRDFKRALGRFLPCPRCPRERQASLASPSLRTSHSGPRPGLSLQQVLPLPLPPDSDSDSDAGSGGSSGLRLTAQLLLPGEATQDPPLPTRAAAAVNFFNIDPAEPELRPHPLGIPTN
Description: To evaluate in radioligand binding assays the activity of compounds of the invention, human recombinant serotonin (5-Hydroxytryptamine) 5-HT6 receptor expressed in human HeLa cells (Monsma, F. Jr. et al, Mol. Pharmacol. 43:320, 1993) in a modified Tris-HCl buffer (50 mM Tris-HCl, pH 7.4, 150 mM NaCl, 2 mM Ascorbic Acid, 0.001% BSA) was used. Compounds of the invention were incubated with 1.5 nM [3H]Lysergic acid diethylamide (LSD) for 120 min at 37° C. Non-specific binding was estimated in the presence of 5 μM Serotonin (5-HT). Receptor proteins were filtered and washed, the filters were then counted to determine [3H]LSD specifically bound. Compounds were screened at 1 μM or lower, using 1% DMSO as vehicle. Biochemical assay results are presented as the percent inhibition of specific binding in Table 4.

[6] = biological target: T6, human recombinant serotonin (5-Hydroxytryptamine) 5-HT7 receptor (Homo sapiens, UniProt P34969); experiment: Serotonin 5-HT7 radioligand binding ([3H]LSD); settings: compound at 0.1 μM, CHO cells; for inhibition at 0.1 µM: read-out: Percentage inhibition of ligand binding, Serotonin 5-HT7
T6 construct: expressed in transfected cells; host or cells: CHO
T6 sequence (P34969 whole entry): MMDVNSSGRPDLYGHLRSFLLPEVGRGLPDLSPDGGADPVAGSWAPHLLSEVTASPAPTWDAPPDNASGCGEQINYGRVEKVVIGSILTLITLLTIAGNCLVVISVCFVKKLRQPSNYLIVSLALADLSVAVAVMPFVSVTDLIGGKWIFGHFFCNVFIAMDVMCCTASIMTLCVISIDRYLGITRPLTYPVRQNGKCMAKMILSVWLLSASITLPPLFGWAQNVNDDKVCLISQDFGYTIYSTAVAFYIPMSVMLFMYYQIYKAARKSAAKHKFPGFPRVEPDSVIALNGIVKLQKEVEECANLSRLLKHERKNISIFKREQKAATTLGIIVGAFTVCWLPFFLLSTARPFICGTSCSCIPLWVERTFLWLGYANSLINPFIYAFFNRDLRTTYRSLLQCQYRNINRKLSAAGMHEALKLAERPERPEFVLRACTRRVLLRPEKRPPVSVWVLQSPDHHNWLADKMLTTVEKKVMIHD
Description: To evaluate in radioligand binding assays the activity of compounds of the invention, human recombinant serotonin (5-Hydroxytryptamine) 5-HT7 receptor expressed in Chinese hamster ovary (CHO) cells (Roth, B. et al, J. Pharmacol. Exp. Ther. 268:1403, 1994; Shen, Y. et al, J. Biol. Chem. 268:18200, 1993) in a modified Tris-HCl buffer (50 mM Tris-HCl, pH 7.4, 10 mM MgCl2, 0.5 mM EDTA) was used. Compounds of invention were incubated with 5.5 nM [^3H] Lysergic acid diethylamide (LSD) for 2 h at 25° C. Non-specific binding was estimated in the presence of 10 μM Serotonin (5-HT). Receptor proteins were filtered and washed, the filters were then counted to determine [^3H]LSD specifically bound. Compounds were screened at 1 μM or lower, using 1% DMSO as vehicle. Biochemical assay results are presented as the percent inhibition of specific binding in Table 4.

| SMILES | inhibition at 1 µM [1] | inhibition at 1 µM [2] | inhibition at 0.1 µM [3] | inhibition at 0.1 µM [4] | inhibition at 0.1 µM [5] | inhibition at 0.1 µM [6] | Histamine H1 Binding (1 μM), percentage inhibition [1] | Percentage inhibition of ligand binding, Dopamine D2L [2] | Percentage inhibition of ligand binding, Serotonin 5-HT2A ([3]; 0.1 µM) | Percentage inhibition of ligand binding, Serotonin 5-HT2C ([4]; 0.1 µM) | Percentage inhibition of ligand binding, Serotonin 5-HT6 [5] | Percentage inhibition of ligand binding, Serotonin 5-HT7 ([6]; 0.1 µM) |
| --- | --- | --- | --- | --- | --- | --- | --- | --- | --- | --- | --- | --- |
| Cc1ccc2c(c1)c1c3n2CC(c2ccc(F)cc2)=CCC3(C)CN(C)C1 (stereo not drawn) [Compound 1, 6-(4-fluoro-phenyl)-2,3a,10-trimethyl-1,2,3,3a,4,7-hexahydro-2,7a-diaza-cyclohepta[jk]fluorene] | 11% | 12% | 56% | 45% | 8% | 26% | – | – | – | – | – | – |
| Cc1ccc2c(c1)c1c3n2CC(c2ccc(F)cc2)CC3(C)CN(C)C1 (stereo not drawn) [Compound 2] | – | – | – | – | – | – | 63% | 13% | 49% | 36% | 12% | 34% |
| Cc1ccc2c(c1)c1c3n2CCC(c2ccc(F)cc2)CC3(C)CN(C)C1 (stereo not drawn) [Compound 3] | 78% | 22% | 45% | 39% | 10% | 46% | – | – | – | – | – | – |
| Cc1ccc2c(c1)c1c3n2CC(c2ccncc2)CC3(C)CN(C)C1 (stereo not drawn) [Compound 4] | 12% | 14% | 47% | 35% | 6% | 38% | – | – | – | – | – | – |
| Cc1ccc2c(c1)c1c3n2CC=C(c2ccc(F)cc2)CC3(C)CN(C)C1 (stereo not drawn) [Compound 5] | 94% | 60% | 54% | 32% | 39% | 35% | – | – | – | – | – | – |
| Cc1ccc2c(c1)c1c3n2CC(c2ccc(F)cc2)CC3(C)CN(C)C1 (stereo not drawn) [Compound 6] | 51% | – | 54% | 38% | – | 39% | – | 6% | – | – | 35% | – |
| Cc1ccc2c(c1)c1c3n2CC(c2ccc(F)cc2)CCC3(C)CN(C)C1 (stereo not drawn) [Compound 7, 6-(4-fluoro-phenyl)-2,3a,10-trimethyl-1,2,3,3a,4,5,6,7-octahydro-2,7a-diaza-cyclohepta[jk]fluorene] | 19% | 0% | 57% | 41% | 6% | 54% | – | – | – | – | – | – |
| Cc1ccc2c(c1)c1c3n2CC(c2ccncc2)OC(C)CC3(C)CN(C)C1 (stereo not drawn) [Compound 8] | 6% | 13% | 68% | 54% | 4% | 55% | – | – | – | – | – | – |
| Cc1ccc2c(c1)c1c3n2CC(C)(c2ccncc2)OC(C)CC3(C)CN(C)C1 (stereo not drawn) [Compound 9] | 6% | 2% | 87% | 73% | 21% | 57% | – | – | – | – | – | – |
